Source: PubChem BioAssay (NCI)
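GI50: concentration for 50% inhibition of growth. At the TGI there is no net growth.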

Assays:
Assay in all cases: DTP human tumour cell line panel, 384-well format
UO-31 renal = system: UO-31 renal
HCC-2998 colon = system: HCC-2998 colon
SK-MEL-2 melanoma = system: SK-MEL-2 melanoma
NCI-H522 lung = system: NCI-H522 lung
NCI-H322M lung = system: NCI-H322M lung
M14 melanoma = system: M14 melanoma
BT-549 breast = system: BT-549 breast
ACHN renal = system: ACHN renal
HOP-92 NSCLC = system: HOP-92 NSCLC
A549 NSCLC = system: A549 NSCLC
OVCAR-4 ovarian = system: OVCAR-4 ovarian
NCI-H23 lung = system: NCI-H23 lung
MOLT-4 leukemia = system: MOLT-4 leukemia
HL-60(TB) leukemia = system: HL-60(TB) leukemia
SR leukemia = system: SR leukemia
NCI/ADR-RES ovarian = system: NCI/ADR-RES ovarian
RXF 393 renal = system: RXF 393 renal
SNB-19 CNS = system: SNB-19 CNS
SK-OV-3 ovarian = system: SK-OV-3 ovarian
SK-MEL-28 melanoma = system: SK-MEL-28 melanoma
HOP-62 NSCLC = system: HOP-62 NSCLC
HCT-15 colon = system: HCT-15 colon
MDA-MB-468 breast = system: MDA-MB-468 breast
PC-3 prostate = system: PC-3 prostate
A498 renal = system: A498 renal
SNB-75 CNS = system: SNB-75 CNS
T-47D breast = system: T-47D breast
UACC-62 melanoma = system: UACC-62 melanoma
NCI-H460 NSCLC = system: NCI-H460 NSCLC
MCF7 breast = system: MCF7 breast
U251 glioblastoma = system: U251 glioblastoma
UACC-257 melanoma = system: UACC-257 melanoma
CAKI-1 renal = system: CAKI-1 renal
HT29 colon = system: HT29 colon
CCRF-CEM leukemia = system: CCRF-CEM leukemia
RPMI-8226 leukemia = system: RPMI-8226 leukemia
MALME-3M melanoma = system: MALME-3M melanoma
K-562 leukemia = system: K-562 leukemia
LOX IMVI melanoma = system: LOX IMVI melanoma
TK-10 renal = system: TK-10 renal
NCI-H226 lung = system: NCI-H226 lung
SF-295 CNS = system: SF-295 CNS
OVCAR-5 ovarian = system: OVCAR-5 ovarian
MDA-MB-231 breast = system: MDA-MB-231 breast
SW-620 colon = system: SW-620 colon
KM12 colon = system: KM12 colon
MDA-MB-435 melanoma = system: MDA-MB-435 melanoma

SMILES: C[C@H](N)C(=O)N1C[C@H](CCCB(O)O)[C@](N)(C(=O)O)C1
- GI50 (UO-31 renal): > 100 µM
- TGI (UO-31 renal): > 100 µM
- GI50 (HCC-2998 colon): > 100 µM
- TGI (HCC-2998 colon): > 100 µM
- GI50 (SK-MEL-2 melanoma): > 100 µM
- TGI (SK-MEL-2 melanoma): > 100 µM
- GI50 (NCI-H522 lung): > 100 µM
- TGI (NCI-H522 lung): > 100 µM
- GI50 (NCI-H322M lung): > 100 µM
- TGI (NCI-H322M lung): > 100 µM
- GI50 (M14 melanoma): > 86 µM
- TGI (M14 melanoma): > 100 µM
- GI50 (BT-549 breast): > 100 µM
- TGI (BT-549 breast): > 100 µM
- GI50 (ACHN renal): > 100 µM
- TGI (ACHN renal): > 100 µM
- GI50 (HOP-92 NSCLC): > 100 µM
- TGI (HOP-92 NSCLC): > 100 µM
- GI50 (A549 NSCLC): > 100 µM
- TGI (A549 NSCLC): > 100 µM
- GI50 (OVCAR-4 ovarian): > 100 µM
- TGI (OVCAR-4 ovarian): > 100 µM
- GI50 (NCI-H23 lung): > 100 µM
- TGI (NCI-H23 lung): > 100 µM
- GI50 (MOLT-4 leukemia): > 100 µM
- TGI (MOLT-4 leukemia): > 100 µM
- GI50 (HL-60(TB) leukemia): > 87.2 µM
- TGI (HL-60(TB) leukemia): > 100 µM
- GI50 (SR leukemia): > 100 µM
- TGI (SR leukemia): > 100 µM
- GI50 (NCI/ADR-RES ovarian): > 100 µM
- TGI (NCI/ADR-RES ovarian): > 100 µM
- GI50 (RXF 393 renal): > 100 µM
- TGI (RXF 393 renal): > 100 µM
- GI50 (SNB-19 CNS): > 100 µM
- TGI (SNB-19 CNS): > 100 µM
- GI50 (SK-OV-3 ovarian): > 100 µM
- TGI (SK-OV-3 ovarian): > 100 µM
- GI50 (SK-MEL-28 melanoma): > 100 µM
- TGI (SK-MEL-28 melanoma): > 100 µM
- GI50 (HOP-62 NSCLC): > 100 µM
- TGI (HOP-62 NSCLC): > 100 µM
- GI50 (HCT-15 colon): > 100 µM
- TGI (HCT-15 colon): > 100 µM
- GI50 (MDA-MB-468 breast): > 100 µM
- TGI (MDA-MB-468 breast): > 100 µM
- GI50 (PC-3 prostate): > 100 µM
- TGI (PC-3 prostate): > 100 µM
- GI50 (A498 renal): > 100 µM
- TGI (A498 renal): > 100 µM
- GI50 (SNB-75 CNS): > 100 µM
- TGI (SNB-75 CNS): > 100 µM
- GI50 (T-47D breast): > 100 µM
- TGI (T-47D breast): > 100 µM
- GI50 (UACC-62 melanoma): > 100 µM
- TGI (UACC-62 melanoma): > 100 µM
- GI50 (NCI-H460 NSCLC): > 100 µM
- TGI (NCI-H460 NSCLC): > 100 µM
- GI50 (MCF7 breast): > 100 µM
- TGI (MCF7 breast): > 100 µM
- GI50 (U251 glioblastoma): > 100 µM
- TGI (U251 glioblastoma): > 100 µM
- GI50 (UACC-257 melanoma): > 100 µM
- TGI (UACC-257 melanoma): > 100 µM
- GI50 (CAKI-1 renal): > 100 µM
- TGI (CAKI-1 renal): > 100 µM
- GI50 (HT29 colon): > 100 µM
- TGI (HT29 colon): > 100 µM
- GI50 (CCRF-CEM leukemia): > 100 µM
- TGI (CCRF-CEM leukemia): > 100 µM
- GI50 (RPMI-8226 leukemia): > 100 µM
- TGI (RPMI-8226 leukemia): > 100 µM
- GI50 (MALME-3M melanoma): > 100 µM
- TGI (MALME-3M melanoma): > 100 µM
- GI50 (K-562 leukemia): > 100 µM
- TGI (K-562 leukemia): > 100 µM
- GI50 (LOX IMVI melanoma): > 100 µM
- TGI (LOX IMVI melanoma): > 100 µM
- GI50 (TK-10 renal): > 100 µM
- TGI (TK-10 renal): > 100 µM
- GI50 (NCI-H226 lung): > 100 µM
- TGI (NCI-H226 lung): > 100 µM
- GI50 (SF-295 CNS): > 100 µM
- TGI (SF-295 CNS): > 100 µM
- GI50 (OVCAR-5 ovarian): > 100 µM
- TGI (OVCAR-5 ovarian): > 100 µM
- GI50 (MDA-MB-231 breast): > 100 µM
- TGI (MDA-MB-231 breast): > 100 µM
- GI50 (SW-620 colon): > 100 µM
- TGI (SW-620 colon): > 100 µM
- GI50 (KM12 colon): > 100 µM
- TGI (KM12 colon): > 100 µM
- GI50 (MDA-MB-435 melanoma): > 100 µM
- TGI (MDA-MB-435 melanoma): > 100 µM
